Article PMC8125234, “Cardiolipin Stabilizes and Increases Catalytic Efficiency of Carnitine Palmitoyltransferase II and Its Variants S113L, P50H, and Y479F” (International Journal of Molecular Sciences, 2021)
Positions count from the first letter of the chain named.

Tests used:
CPT II WT [1] = target: T1, CPT II WT (Homo sapiens, UniProt P23786); test: Influence of CL on the enzyme activity; format: biochemical; conditions: for Maximal Enzymatic Activity: w/o CL = 100
T1 construct: made in house; host or cells: Escherichia coli BL21Gold DE
T1 sequence (P23786 26-658): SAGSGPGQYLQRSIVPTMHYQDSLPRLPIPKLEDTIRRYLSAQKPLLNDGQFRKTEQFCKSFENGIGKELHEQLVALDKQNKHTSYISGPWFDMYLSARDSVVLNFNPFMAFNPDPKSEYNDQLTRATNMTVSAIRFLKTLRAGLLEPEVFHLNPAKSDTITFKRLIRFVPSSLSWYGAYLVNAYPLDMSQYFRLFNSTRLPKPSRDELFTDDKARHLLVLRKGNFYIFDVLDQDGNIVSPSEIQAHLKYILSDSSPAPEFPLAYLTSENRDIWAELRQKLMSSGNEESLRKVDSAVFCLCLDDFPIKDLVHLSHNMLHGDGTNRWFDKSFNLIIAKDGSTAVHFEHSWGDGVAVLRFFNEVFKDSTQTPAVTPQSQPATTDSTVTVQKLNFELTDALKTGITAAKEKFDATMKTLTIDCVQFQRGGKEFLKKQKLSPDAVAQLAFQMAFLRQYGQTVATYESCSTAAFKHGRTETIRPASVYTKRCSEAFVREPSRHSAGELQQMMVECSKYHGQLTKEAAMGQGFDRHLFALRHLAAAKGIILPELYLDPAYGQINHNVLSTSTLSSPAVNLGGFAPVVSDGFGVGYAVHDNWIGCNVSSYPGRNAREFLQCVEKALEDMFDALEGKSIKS
Experimental: Then, the effect of CL, as a potential stabilizing agent, was investigated in the activity assay. Therefore, 0.1 mg/mL recombinant enzyme was incubated with various concentrations of CL (0.125, 0.25 or 0.5 mM) or buffer at 30 and 42 °C, respectively.
Before activity measurements, the storage buffer of the enzymes was replaced with assay buffer (50 mM KH2PO4, 120 mM KCl, 1 mM EDTA-Na4) using vivaspin turbo 4 tubes (Satorius Stedim biotech GmbH, Göttingen, Germany) at 4 °C. The pH of assay buffer was adjusted with KOH to 7.4. The storage buffer was diluted at least 1:500 in assay buffer. In addition, before each experimental set up, the protein samples were centrifuged at 16,000× g for 5 min at 4 °C to remove any micro-aggregates. After that, the protein concentration was determined using bicinchoninic acid (BCA) protein assay kit (Thermo Fisher Scientific GmbH, Berlin, Germany). The enzyme activity of recombinant CPT II was performed following Rufer et al. with modifications described elsewhere. […] After pre-conditioning the mixture to 25 °C for 2 min, the reaction was started by adding 15 nM of recombinant enzyme. The reverse reaction of CPT II was detected with the enzyme activity assay. CPT II catalyzed the transfer of fatty acid residue from Pal-CoA to L-carnitine with release of CoA and Pal-carnitine. The released CoA was then detected by the reaction of the free thiol group with DTNB, forming 5-mercapto-(2-nitrobenzoic acid). This compound has a molar extinction coefficient of 13,600 M^−1 cm^−1 at a wavelength of 410 nm, and its formation was followed spectroscopically. […] The slope of the progress curve was used to determine the reaction velocity.
The purified enzymes were incubated at different temperatures (30, 37, 40 and 42 °C) using a protein concentration of 1 mg/mL during the incubation periods to investigated the half-lives of WT and variants. 0.1 mg/mL enzyme was incubated with or without CL (0.125, 0.25 and 0.5 mM) in the assay buffer. The enzyme activities were determined by adding 15 nM of pre-incubated enzyme according to Section 4.3 after various incubation times up to 60 min at an assay temperature of 25 °C. Experiments were done at least three times independently as double determination.

CPT II variant Y479F = target: T2, CPT II variant Y479F (Homo sapiens, UniProt P23786, Y479F); test: Lipid binding assay (membrane lipid strips); conditions: 0.4 mg enzyme, 100 pmol lipid spots
T2 construct: made in house; host or cells: Escherichia coli BL21Gold DE
T2 sequence (P23786 26-658 Y479F): T1 sequence (P23786 26-658) with Y454F
Experimental: (§1) Direct interaction of CPT II WT and variants with phospholipids of the mitochondrial membrane was assessed using membrane lipid strips (Echelon Biosciences, Salt Lake City, Utah, USA). The membrane was spotted with 100 pmol of various cell membrane lipids. The assay was performed following manufacturer’s instructions with some modifications explained in the following. At first, the membrane was washed twice in phosphate buffered saline (PBS). After 1 h incubation with blocking solution (3% BSA fatty acid-free in PBS) at room temperature, the membrane was incubated with purified CPT II WT or variant (final amount 0.4 mg protein) for 2 h at 4 °C. After three washing steps, a-His-Probe (H3) mouse monoclonal antibody (Santa Cruz Biotech, Santa Cruz, CA, USA, 1:1000 dilution in PBS containing 3% BSA) was added to the membrane over night at 4 °C. The membrane was washed three times with PBS and incubated with mouse IgG horseradish peroxidase-linked whole antibody (from sheep, Amersham, Little Chalfont, Buckinghamshire, UK) for 1 h at 4 °C. The interaction was visualized by ECL Western blotting detection reagents (Amersham, Little Chalfont, Buckinghamshire, UK).

CPT II WT [2] = target: T1, CPT II WT; test: Lipid binding assay (membrane lipid strips); conditions: 0.4 mg enzyme, 100 pmol lipid spots
Experimental: as §1

Increase of the enzymatic activity by CL (CPT II WT [1]): 1.5 fold
Maximal Enzymatic Activity (CPT II WT [1]; 0.25 mM CL): 152.3 ± 5.5%
Maximal Enzymatic Activity (CPT II WT [1]; 0.5 mM CL): 135.9 ± 4.7%
Enzymatic activity in the presence of CL (CPT II WT [1]; 0.25 and 0.5 mM CL, before incubation periods): up to 150%
Signal for interaction on membrane lipid strips (CPT II variant Y479F): clearly proven
Signal for interaction on membrane lipid strips (CPT II WT [2]): clearly proven
Substance: Cardiolipin [CL]
